Test results as given in patent publication US5847159A, “1-[ω-(3,4-dihydro-2-naphthalenyl)alkyl]-cyclic amine derivatives, process for preparing the same, and pharmaceutical composition containing the same” (priority 1995, dated 1998).

Assays:
[1] = test system: bladder contractions induced by stimulation of the pelvic nerve, central cut end; experiment: Effect on the bladder contractions induced by stimulation of the pelvic nerve (central cut end); format: in vivo, Male Std-Wistar rats; details: 5 mg/kg i.v. (jugular vein), mean±SEM
Description: (§1) Effect on the bladder contractions induced by stimulation of the pelvic nerve
(§2) Male Std-Wistar rats weighing 250-350 g were used. Under urethane anesthesia (1 g/kg, i.p.), both ureters were tied and cut at the side of kidney after a mid line incision of the abdomen. When the peripheral end of the pelvic nerve was stimulated, one side of the pelvic nerve was cut. When the central cut end of the nerve was stimulated, one side of the pelvic nerve was cut like in the peripheral end stimulation after both the hypogastric nerves were cut. Then, the bladder was exposed, the cannula connected to a syringe and a pressure transducer was inserted into the bladder via a small incision at an apex of the dome, and the proximal urethra was then ligated. Fifteen minutes after the operation, warm saline solution of an amount (0.1-0.2 ml) being small enough not to cause rhythmic contraction was infused into the bladder using a syringe. The change of the intravesical pressure was recorded on a recorder via a pressure transducer. The pelvic nerve was stimulated at the peripheral cut end or the central one by a pair of platinum electrodes with pulse of 1 msec duration, 3 v strength and a frequency of 10 Hz (for peripheral) or 5 v strength and a frequency of 20 Hz (for central), for 5 seconds every 2 minutes. Test compounds dissolved in distilled water were injected at a dose of 5 mg/kg via the cannula inserted into the jugular vein.
(§3) Each value in the table is mean±standard error of mean in 3-4 animals.

[2] = test system: polysynaptic spinal reflex; experiment: Inhibitory effect on polysynaptic spinal reflex; format: in vivo, Male Std-Wistar rats; details: iv; rat; read-out: Inhibitory effect on polysynaptic spinal reflex, ID50
Method: Inhibitory effect on polysynaptic spinal reflex
The experiment was performed according to the method of Itoh, et al. [Japan J. Parmacol.,23, 1125 (1982)]. Male Std-Wistar rats weighing 250-350 g were used in groups of 4-6 animals. Under anesthesia with combined i.p. injection of urethane (400 mg/kg) and α-chloralose (50 mg/kg), the rat fixed in a stereotaxic apparatus was clamped at the spine and tibial bane. A concentric needle electrode was inserted into the left gastrocnemius muscle, and the central end of the ipsilateral common peroneal nerve at the same side was supramaximally stimulated by an electrical stimulator (rectangular pulse,0.1 msec,0.1 Hz). Test compounds dissolved in distilled water were injected via a cannula inserted into the right femoral vein, and the evoked electromyogram was periodically recorded (2, 5, 10, 20 and 30 minutes after the injection). […] The results are shown in Table 5 along with the results of Experiments 3 and 5.

[3] = test system: rhythmic bladder contractions (micturition reflex); experiment: Inhibitory effect on rhythmic bladder contractions (micturition reflex); format: in vivo, Female Std-Wistar rats; details: 2 h; i.d.; two hours; rat; read-out: ED50, inhibitory effect on contractile frequency
Method: Inhibitory effect on rhythmic bladder contractions (micturition reflex)
The experiment was carried out according to the method of Maggi, C. […] It is generally accepted that the rhythmic bladder contractions evoked by instillation of saline solution into the bladder are mediated via the micturition reflex pathway like that of natural urination.
Female Std-Wistar rats weighing 160-190 g were used in groups of 3-4 animals. Under urethane anesthesia (1 g/kg, s.c.), both ureters were tied and cut at the side of kidney after a mid line incision of the abdomen. A cannula, connected to a syringe and a pressure transducer, was inserted into the bladder via the external urethral orifice and ligated around the proximal urethra. The animal was allowed to stay for about 30 minutes after the operation. The bladder was slowly filled with warm saline solution (0.4-1 ml) by means of a syringe until rhythmic contractions were induced. The change of the intravesical pressure was recorded on a recorder via a pressure transducer. After the rhythmic contractions became constant, test compounds dissolved or suspended in 0.5% aqueous tragacanth solution were administered via the cannula inserted for intraduodenal administration. The effect of each compound on the contractile frequency was investigated every 15 minutes till two hours after the administration.
The inhibitory rate on the contractile frequency (two hours) was expressed as the mean value of the inhibitory rates at an every 15-minute interval for two hours after the administration, which was determined based on the contractile frequency for 15 minutes before the administration.

exploratory behavior = experiment: Inhibitory effect on exploratory behavior; format: in vivo, Male Std-Wistar rats; details: 500 mg/kg p.o.; one hour after administration; rat
Method: Inhibitory effect on exploratory behavior
Male Std-Wistar rats weighing 150-200 g were used in groups of 5 animals. One hour after oral administration of test compounds suspended in 0.5% aqueous tragacanth solution, animals were individually placed in a test cage (23×35×30 cm) on an Animex activity meter (Farad Co., Sweden). Immediately thereafter, locomotor counting was started and lasted for three minutes. The mean value of the exploratory behavior (count/3 minutes) in the test compound-treated groups were determined, and then inhibitory effect of each test compound was calculated as compared with that of the control group (0.5% aqueous tragacanth solution-treated group). The results are shown in Table 5 along with the results of Experiments 4 and 5.

[4] = test system: neurogenic bladder, unstable bladder, and nervous pollakisuria; details: Nishinihon J. Urol., 54, 1472 and 1820 (1992); cited from earlier work
[5] = test system: bladder contractions induced by stimulation of the pelvic nerve, peripheral cut end; experiment: Effect on the bladder contractions induced by stimulation of the pelvic nerve (peripheral cut end); format: in vivo, Male Std-Wistar rats; details: 5 mg/kg i.v. (jugular vein), mean±SEM
Description: as §1, §2, §3

dopamine receptor = details: in vitro; cited from earlier work

| Compound | Inhibitory rate on the contraction caused by the stimulation of the central cut end, 2 min. ([1]; 2 min, * p<0.05) | Inhibitory rate on the contraction caused by the stimulation of the central cut end, 4 min. ([1]; 4 min, * p<0.05, ** <0.01) | Inhibitory rate on the contraction caused by the stimulation of the central cut end, 10 min. ([1]; 10 min, ** <0.01) | Inhibitory rate on the contraction caused by the stimulation of the central cut end, 20 min. ([1]; 20 min, * p<0.05, ** <0.01) | ED50 [2] | ED50 [3] | Inhibitory rate, exploratory behavior (exploratory behavior) | Efficacy for neurogenic bladder, unstable bladder, nervous pollakisuria [4] | Inhibitory rate on the contraction caused by the stimulation of the peripheral cut end, 2 min. ([5]; 2 min) | Inhibitory rate on the contraction caused by the stimulation of the peripheral cut end, 4 min. ([5]; 4 min) | Inhibitory rate on the contraction caused by the stimulation of the peripheral cut end, 10 min. ([5]; 10 min, * p<0.05) | Inhibitory rate on the contraction caused by the stimulation of the peripheral cut end, 20 min. ([5]; 20 min, * p<0.05) | Affinity for dopamine receptor (dopamine receptor) |
| --- | --- | --- | --- | --- | --- | --- | --- | --- | --- | --- | --- | --- | --- |
| CCc1ccc(C(=O)C(C)CN2CCCC2)cc1.Cl (stereo not shown) [Compound A, 1-(4-ethylphenyl)-2-methyl-3-(1-pyrrolidinyl)-1-propanone hydrochloride, reference compound] | 21.0 ± 10.7% | 22.5 ± 7.3% | 29.3 ± 7.7% | 40.6 ± 8.8% | 4.22 mg/kg | 34.8 mg/kg | 28.3% | effective for the symptoms such as neurogenic bladder, unstable bladder, and nervous pollakisuria | 6.2 ± 5.1% | 14.7 ± 4.0% | 25.1 ± 4.2% | 31.6 ± 2.5% |  |
| C1=C(CCN2CCCCC2)CCc2ccccc21.Cl [1-[2-(3,4-dihydro-2-naphthalenyl)ethyl]piperidine hydrochloride] |  |  |  |  |  |  |  |  |  |  |  |  | quite low affinity |
